The record followed here is ChEMBL document CHEMBL1201862, “PubChem BioAssay data set” (2004).

The structures appear in SMILES notation.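 Tested at 5 concentrations; 48 h exposure; 96-well plates; endpoints linearly interpolated, else capped at highest concentration. GI50 marks 50% less growth.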 The source made the active and inactive calls. Rule as the data show it: active = GI50 up to about 1.1 µM and inactive = higher.

Among the test systems are NCI-H460; SF-539; SF-268; SNB-75; K562; HCT-116; 786-0; OVCAR-5; IGROV-1; UACC-62; CCRF-CEM; HT-29; OVCAR-3; A498.
Holding throughout (experiment): inhibition of tumour cell growth, NCI panel, 48 h

With `C=C(Br)C(C)(Br)CCC(Br)C(C)(C)Br` (centres undefined), the GI50 with NCI-H460 is 33.7 µM (inactive); with SF-539, 19.3 µM (inactive); with SF-268, 30.2 µM (inactive); in the test with SNB-75, 28.3 µM (inactive); in the test on K562 it was 21.4 µM (inactive); in the test on HCT-116 it was 21.2 µM (inactive). Further, the GI50 in the test on 786-0 was 22.5 µM (inactive); in the test on OVCAR-5, 35.5 µM (inactive); in the test with IGROV-1, 19.7 µM (inactive); in the test on UACC-62, 21 µM (inactive); with CCRF-CEM, 15 µM (inactive); in the test with HT-29, 38.8 µM (inactive).

Take `O=c1[nH]nc(-c2ccccc2)c(-c2ccccc2)c1-n1nc(-c2ccccc2)c2ccccc2c1=O`: the GI50 in the test on NCI-H460 was 90.6 µM (inactive); in the test on SF-539, > 100 µM (inactive); in the test on SF-268, > 100 µM (inactive); in the test with OVCAR-3, 51.5 µM (inactive); in the test on SNB-75 it was > 100 µM (inactive); with K562, 27.9 µM (inactive). Further, the GI50 in the test with HCT-116 was 83.9 µM (inactive); in the test with 786-0, > 100 µM (inactive); in the test with OVCAR-5, > 100 µM (inactive); in the test with IGROV-1, > 100 µM (inactive); in the test on A498, > 100 µM (inactive); in the test with UACC-62 it was > 100 µM (inactive). In addition, the GI50 in the test on CCRF-CEM was 27.9 µM (inactive); with HT-29 it was 68.5 µM (inactive).

For the molecule `O=C(Nc1nnc(S)[nH]1)C(=O)C1C(=O)Nc2ccccc2[S+]1[O-]` (centres undefined), the GI50 with NCI-H460, with SF-539, with SF-268, in the test on OVCAR-3, with SNB-75 and with HCT-116 was > 100 µM (inactive) throughout. Moreover, the GI50 with 786-0, with IGROV-1, in the test on UACC-62, in the test with CCRF-CEM and with HT-29 was > 100 µM (inactive) throughout.

Consider `COC(=O)/C(=N\N)C(C(=O)C(=O)Nc1nnc(S)[nH]1)c1nc2ccc([N+](=O)[O-])cc2nc1O` (centres undefined), for which the GI50 in the test on NCI-H460, with SF-539, with SF-268, in the test on OVCAR-3, in the test on SNB-75 and with K562 was > 100 µM (inactive) in each case. Moreover, the GI50 in the test on HCT-116, with 786-0, in the test with OVCAR-5, in the test on IGROV-1, in the test with A498 and in the test with UACC-62 was > 100 µM (inactive) in each case. Further, the GI50 in the test with CCRF-CEM and in the test with HT-29 was > 100 µM (inactive) throughout.

Regarding `O=C1N=C2Sc3ccc4ccccc4c3N2C1=O`, the GI50 in the test on NCI-H460 is 25.1 µM (inactive); with SF-539 it was 18.8 µM (inactive); with SF-268, 24.7 µM (inactive); in the test with OVCAR-3 it was 18 µM (inactive); with SNB-75, 23.6 µM (inactive); in the test with K562, 33 µM (inactive). For the same molecule, the GI50 is 17.7 µM (inactive) in the test with HCT-116; 19.8 µM (inactive) with 786-0; 50.7 µM (inactive) in the test with OVCAR-5; 19.1 µM (inactive) in the test on IGROV-1; 40.5 µM (inactive) with UACC-62; 31.3 µM (inactive) in the test on CCRF-CEM. For the same molecule, the GI50 in the test on HT-29 is 32.7 µM (inactive).

On to `CO[C@@H]1C=C[C@@]23c4cc5c(cc4C(=O)O[C@H]2CN(C)[C@H]3C1)OCO5`, for which the GI50 in the test with NCI-H460 was > 100 µM (inactive); with SF-539 it was > 100 µM (inactive); with SF-268, > 100 µM (inactive); in the test on OVCAR-3, > 100 µM (inactive); with SNB-75 it was 81.7 µM (inactive); in the test on K562 it was > 100 µM (inactive). Further, the GI50 in the test with HCT-116, in the test with 786-0, with OVCAR-5, in the test with IGROV-1, in the test with A498 and in the test on UACC-62 was > 100 µM (inactive) throughout. For the same molecule, the GI50 with CCRF-CEM and in the test on HT-29 was > 100 µM (inactive) in each case.

Regarding `COc1ccccc1OCC(COC(=O)Nc1ccc(C)cc1)OC(=O)Nc1ccc(C)cc1` (centres undefined), the GI50 with NCI-H460 was 16.7 µM (inactive); in the test with SF-539, 19.1 µM (inactive); in the test on SF-268, 19.5 µM (inactive); with OVCAR-3, 17.3 µM (inactive); in the test on SNB-75, 23 µM (inactive); with K562, 18.5 µM (inactive). The GI50 was 17.5 µM (inactive) in the test on HCT-116; 20 µM (inactive) in the test on 786-0; 21.8 µM (inactive) with OVCAR-5; 26 µM (inactive) in the test with IGROV-1; > 100 µM (inactive) in the test with A498; 15.3 µM (inactive) in the test with UACC-62. In addition, the GI50 with CCRF-CEM was 18.2 µM (inactive); with HT-29, 19.2 µM (inactive).

As for `COc1ccc2oc(-c3ccc(OC)c(OC)c3OC)cc(=O)c2c1`, the GI50 was 31.2 µM (inactive) in the test with SF-539; 36.4 µM (inactive) in the test on SF-268; 34.7 µM (inactive) in the test on OVCAR-3; 48.3 µM (inactive) with SNB-75; 40.6 µM (inactive) in the test on K562; 34.6 µM (inactive) with HCT-116. Besides, the GI50 in the test on 786-0 is 72.4 µM (inactive); in the test on OVCAR-5, 28.4 µM (inactive); with IGROV-1, 83.9 µM (inactive); in the test on UACC-62 it was 55.2 µM (inactive); with CCRF-CEM, 35.2 µM (inactive); with HT-29, 48.2 µM (inactive).

`CCOC(=O)C1C(=O)c2cccc(OC)c2C2COC(=O)N12` (centres undefined): the GI50 in the test with NCI-H460, with SF-539, with SF-268, in the test with OVCAR-3, with SNB-75 and with K562 was > 100 µM (inactive) in each case. In addition, the GI50 with HCT-116, with 786-0, in the test on OVCAR-5, with IGROV-1, with UACC-62 and in the test on CCRF-CEM was > 100 µM (inactive) throughout. Further, the GI50 with HT-29 is > 100 µM (inactive).

With `N=C1SCCS1`, the GI50 in the test on NCI-H460 was > 100 µM (inactive); in the test with SF-539, > 100 µM (inactive); in the test on SF-268, > 100 µM (inactive); with OVCAR-3 it was > 100 µM (inactive); with SNB-75 it was 36.2 µM (inactive); in the test with K562, > 100 µM (inactive). In addition, the GI50 in the test on HCT-116, in the test on 786-0, with OVCAR-5, in the test on IGROV-1, with UACC-62 and in the test on CCRF-CEM was > 100 µM (inactive) throughout. For the same molecule, the GI50 in the test on HT-29 was > 100 µM (inactive).

In the case of `[O-][n+]1c2cc(CBr)c(CBr)cc2[n+]([O-])c2c(O)cccc21`, the GI50 with NCI-H460 is 1.91 µM (inactive); in the test on SF-268 it was 2.84 µM (inactive); in the test with OVCAR-3, 2.22 µM (inactive); in the test on SNB-75, 2.11 µM (inactive); in the test with K562, 1.22 µM (inactive); in the test on HCT-116, 1.53 µM (inactive). Moreover, the GI50 is 1.58 µM (inactive) in the test on 786-0; 1.95 µM (inactive) in the test with OVCAR-5; 4.02 µM (inactive) with IGROV-1; 12.5 µM (inactive) in the test with A498; 1.79 µM (inactive) with UACC-62; 0.265 µM (active) in the test with CCRF-CEM. Moreover, the GI50 in the test on HT-29 is 2.01 µM (inactive).

With `C[N+](C)(C)CC(=O)N/N=C(/Cc1nc2ccc(Cl)cc2nc1O)C1=NS(=O)(=O)c2cc(S(N)(=O)=O)c(Cl)cc2N1`, the GI50 with NCI-H460, in the test on SF-539, in the test with SF-268, with OVCAR-3, in the test with K562 and in the test with HCT-116 was > 100 µM (inactive) in each case. In addition, the GI50 with 786-0, in the test with OVCAR-5, in the test with IGROV-1, in the test on A498, in the test on UACC-62 and with CCRF-CEM was > 100 µM (inactive) each time. Also, the GI50 with HT-29 is > 100 µM (inactive).

Take `CC1(C)COC(C23C4C5C2C2C3C4C52I)=N1` (centres undefined): the GI50 with NCI-H460, in the test on SF-539, with SF-268, in the test on OVCAR-3, in the test on K562 and with 786-0 was > 100 µM (inactive) each time. Also, the GI50 in the test with OVCAR-5, in the test on IGROV-1, in the test with A498, with UACC-62, with CCRF-CEM and with HT-29 was > 100 µM (inactive) each time.

With `CC1=CCN(c2ccccn2)OC1c1ccccc1` (centres undefined), the GI50 in the test on NCI-H460, with SF-539, in the test with SF-268, in the test on OVCAR-3, in the test on SNB-75 and in the test on K562 was > 100 µM (inactive) throughout. Besides, the GI50 with HCT-116 is > 100 µM (inactive); in the test with 786-0, > 100 µM (inactive); with OVCAR-5, 59.8 µM (inactive); in the test on IGROV-1, > 100 µM (inactive); in the test on UACC-62, > 100 µM (inactive); in the test with CCRF-CEM, > 100 µM (inactive). In the test on HT-29, the GI50 was > 100 µM (inactive).

On to `COc1cc2c(c(OC)c1OC)-c1ccc(SC)c(=O)cc1[C@@H](NCc1cccc([N+](=O)[O-])c1)CC2`, for which the GI50 in the test with NCI-H460 is < 0.01 µM (active); in the test with SF-539, < 0.01 µM (active); in the test with SF-268, < 0.01 µM (active); in the test on OVCAR-3, < 0.01 µM (active); in the test on SNB-75, 11.1 µM (inactive); in the test on K562, < 0.01 µM (active). For the same molecule, the GI50 was < 0.01 µM (active) in the test with HCT-116; < 0.01 µM (active) in the test on 786-0; > 100 µM (inactive) with OVCAR-5; < 0.01 µM (active) in the test on IGROV-1; < 0.01 µM (active) in the test with UACC-62; < 0.01 µM (active) in the test with CCRF-CEM. Besides, in the test on HT-29, the GI50 was < 0.01 µM (active).
